Source: US8618152B2, “Inhibitors of serine proteases, particularly HCV NS3-NS4A proteases” (Vertex Pharmaceuticals Incorporated, priority 2003, dated 2013)
Where two headings read alike, the source gives them in different places. *1 amine or outer side, *2 acyl side, *3 side chain or, on linkers, in order; H or OH if unused. Where a SMILES comes first, the peptide text is derived from it. [ ]: non-standard residue; d: D form. The star is where a group is joined. ξ: configuration not given here. Pro(trans-3-iPr) = CC(C)[C@H]1CCN[C@@H]1C(=O)O; Pro(3S-Et) = CC[C@H]1CCN[C@@H]1C(=O)O; Phe(2-Me) = Cc1ccccc1C[C@H](N)C(=O)O; Pyrazinecarbonyl = O=C(c1cnccn1)*; X1 = CCCC(N[*:1])C(=O)C(=O)[*:2]; Ile(3ξ) = CCC(C)[C@H](N)C(=O)O; aThr = C[C@H](O)[C@H](N)C(=O)O; Chg = N[C@H](C(=O)O)C1CCCCC1; Tle = CC(C)(C)[C@H](N)C(=O)O

What was measured:
[1] = system: Cells containing hepatitis C virus (HCV) replicon; assay: HCV replicon cell assay; assay type: cell-based
Protocol: HCV Replicon Cell Assay Protocol
Cells containing hepatitis C virus (HCV) replicon were maintained in DMEM containing 10% fetal bovine serum (FBS), 0.25 mg per ml of G418, with appropriate supplements (media A).
On day 1, replicon cell monolayer was treated with a trypsin:EDTA mixture, removed, and then media A was diluted into a final concentration of 100,000 cells per ml with. 10,000 cells in 100 ul were plated into each well of a 96-well tissue culture plate, and cultured overnight in a tissue culture incubator at 37° C.
On day 2, compounds (in 100% DMSO) were serially diluted into DMEM containing 2% FBS, 0.5% DMSO, with appropriate supplements (media B). The final concentration of DMSO was maintained at 0.5% throughout the dilution series.
Media on the replicon cell monolayer was removed, and then media B containing various concentrations of compounds was added. Media B without any compound was added to other wells as no compound controls.
Cells were incubated with compound or 0.5% DMSO in media B for 48 hours in a tissue culture incubator at 37° C. At the end of the 48-hour incubation, the media was removed, and the replicon cell monolayer was washed once with PBS and stored at −80° C. prior to RNA extraction.
Culture plates with treated replicon cell monolayers were thawed, and a fixed amount of another RNA virus, such as Bovine Viral Diarrhea Virus (BVDV) was added to cells in each well. RNA extraction reagents (such as reagents from RNeasy kits) were added to the cells immediately to avoid degradation of RNA. Total RNA was extracted according the instruction of manufacturer with modification to improve extraction efficiency and consistency. Finally, total cellular RNA, including HCV replicon RNA, was eluted and stored at −80° C. until further processing.
A Taqman real-time RT-PCR quantification assay was set up with two sets of specific primers and probe. One was for HCV and the other was for BVDV. Total RNA extractants from treated HCV replicon cells was added to the PCR reactions for quantification of both HCV and BVDV RNA in the same PCR well. Experimental failure was flagged and rejected based on the level of BVDV RNA in each well. The level of HCV RNA in each well was calculated according to a standard curve run in the same PCR plate. The percentage of inhibition or decrease of HCV RNA level due to compound treatment was calculated using the DMSO or no compound control as 0% of inhibition. The IC50 (concentration at which 50% inhibition of HCV RNA level is observed) was calculated from the titration curve of any given compound.

[2] = target: HCV NS3-NS4A protease (tNS3 with KK4A) (Hepatitis C virus genotype 1a, UniProt P27958); assay: HCV Ki assay (HPLC microbore separation of 5AB substrate and products); assay type: biochemical; settings: 25 nM tNS3, 25 μM KK4A, 25 μM 5AB substrate, 20 min at 30 C; read-out: Ki
Sequence of HCV NS3-NS4A protease (tNS3 with KK4A) (P27958 1027-1208): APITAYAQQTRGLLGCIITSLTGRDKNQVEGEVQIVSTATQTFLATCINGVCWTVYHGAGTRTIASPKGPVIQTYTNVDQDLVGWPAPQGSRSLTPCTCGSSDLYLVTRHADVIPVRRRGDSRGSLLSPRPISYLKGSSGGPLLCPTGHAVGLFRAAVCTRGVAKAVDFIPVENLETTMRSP
Protocol: HPLC Microbore Method for Separation of 5AB Substrate and Products
Substrate: NH2-Glu-Asp-Val-Val-(alpha)Abu-Cys-Ser-Met-Ser-Tyr-COOH
A stock solution of 20 mM 5AB (or concentration of your choice) was made in DMSO w/0.2M DTT. This was stored in aliquots at −20 C.
Buffer: 50 mM HEPES, pH 7.8; 20% glycerol; 100 mM NaCl
Total assay volume was 100 μL
The buffer, KK4A, DTT, and tNS3 were combined; distributed 78 μL each into wells of 96 well plate. This was incubated at 30 C for ˜5-10 min.
2.5 μL of appropriate concentration of test compound was dissolved in DMSO (DMSO only for control) and added to each well. This was incubated at room temperature for 15 min.
Initiated reaction by addition of 20 μL of 250 μM 5AB substrate (25 μM concentration is equivalent or slightly lower than the Km for 5AB).
Incubated for 20 min at 30 C.
Terminated reaction by addition of 25 μL of 10% TFA
Transferred 120 μL aliquots to HPLC vials
Separated SMSY product from substrate and KK4A by the following method:
Microbore Separation Method:
Instrumentation: Agilent 1100
Column thermostated chamber G1316A
Diode array detector G1315A
Solvent A=HPLC grade water+0.1% TFA
Solvent B=HPLC grade acetonitrile+0.1% TFA
Stop time: 17 min Post-run time: 10 min.

CCCC(NC(=O)[C@@H]1[C@@H](C2CCCCC2)CCN1C(=O)[C@@H](NC(=O)[C@@H](NC(=O)c1cnccn1)C1CCCCC1)C(C)C)C(=O)C(=O)NC1CC1 (stereo partly shown) [Compound 54]
IC50 ([1]; 48 h): > 1000 nM
Ki [2]: 100 to 500 nM

CCCC(NC(=O)[C@@H]1[C@@H](CC)CCN1C(=O)[C@@H](NC(=O)[C@@H](NC(=O)c1cnccn1)C(C)C)[C@@H](C)OCC)C(=O)C(=O)N[C@@H](Cc1ccccc1)C(=O)O (stereo partly drawn) [Compound 36] (Pyrazinecarbonyl-VT(Et)[Pro(3S-Et)][X1]F-OH)
Ki [2]: 100 to 500 nM

CCCC(NC(=O)[C@@H]1[C@@H](CC)CCN1C(=O)[C@@H](NC(=O)[C@@H](NC(=O)c1cnccn1)C1CCCCC1)C(C)C)C(=O)C(=O)N[C@@H](Cc1ccccc1)C(=O)O (stereo partly drawn) [Compound 26] (Pyrazinecarbonyl-[Chg]V[Pro(3S-Et)][X1]F-OH)
Ki [2]: < 100 nM

CCCC(NC(=O)[C@@H]1[C@@H](CC)CCN1C(=O)[C@@H](NC(=O)[C@H](Cc1ccccc1C)NC(=O)c1cnccn1)C(C)C)C(=O)C(=O)N[C@@H](Cc1ccccc1)C(=O)O (stereo partly drawn) [Compound 27] (Pyrazinecarbonyl-[Phe(2-Me)]V[Pro(3S-Et)][X1]F-OH)
Ki [2]: < 100 nM

CCCC(NC(=O)[C@@H]1[C@@H](CC)CCN1C(=O)[C@@H](NC(=O)[C@@H](NC(=O)c1cnccn1)C(C)C)C(C)(C)C)C(=O)C(=O)N[C@@H](Cc1ccccc1)C(=O)O (stereo partly drawn) [Compound 31] (Pyrazinecarbonyl-V[Tle][Pro(3S-Et)][X1]F-OH)
Ki [2]: < 100 nM

CCCC(NC(=O)[C@@H]1[C@@H](CC)CCN1C(=O)[C@@H](NC(=O)[C@@H](NC(=O)c1cnccn1)C1CCCCC1)C(C)CC)C(=O)C(=O)N[C@@H](C)c1ccccc1 (stereo partly shown) [Compound 51]
Ki [2]: 100 to 500 nM

CCCC(NC(=O)[C@@H]1[C@@H](CC)CCN1C(=O)[C@@H](NC(=O)[C@H](CC(C)C)NC(=O)c1cnccn1)C(C)C)C(=O)C(=O)N[C@@H](Cc1ccccc1)C(=O)O (stereo partly drawn) [Compound 28] (Pyrazinecarbonyl-LV[Pro(3S-Et)][X1]F-OH)
Ki [2]: < 100 nM

CCCC(NC(=O)[C@@H]1[C@@H](CC)CCN1C(=O)[C@@H](NC(=O)[C@@H](NC(=O)c1cnccn1)C(C)C)[C@H](C)OC)C(=O)C(=O)N[C@@H](Cc1ccccc1)C(=O)O (stereo partly drawn) [Compound 33] (Pyrazinecarbonyl-V[aThr](Me)[Pro(3S-Et)][X1]F-OH)
Ki [2]: 100 to 500 nM

C=C[C@H]1CCN(C(=O)[C@@H](NC(=O)[C@@H](NC(=O)c2cnccn2)C(C)C)C(C)C)[C@@H]1C(=O)NC(CCC)C(=O)C(=O)N[C@@H](Cc1ccccc1)C(=O)O (stereo partly shown) [Compound 19]
Ki [2]: 100 to 500 nM

CCCC(NC(=O)[C@@H]1[C@@H](C(C)C)CCN1C(=O)[C@@H](NC(=O)[C@@H](NC(=O)c1cnccn1)C(C)C)C(C)C)C(=O)C(=O)N[C@@H](Cc1ccccc1)C(=O)O (stereo partly drawn) [Compound 16] (Pyrazinecarbonyl-VV[Pro(trans-3-iPr)][X1]F-OH)
Ki [2]: 100 to 500 nM

CCCC(NC(=O)[C@@H]1[C@@H](CC)CCN1C(=O)[C@@H](NC(=O)[C@@H](NC(=O)c1cnccn1)C(C)C)[C@@H](C)OC)C(=O)C(=O)N[C@@H](Cc1ccccc1)C(=O)O (stereo partly drawn) [Compound 35] (Pyrazinecarbonyl-VT(Me)[Pro(3S-Et)][X1]F-OH)
Ki [2]: > 500 nM

CCCC(NC(=O)[C@@H]1[C@@H](C(C)CC)CCN1C(=O)[C@@H](NC(=O)[C@@H](NC(=O)c1cnccn1)C(C)C)C(C)C)C(=O)C(=O)N[C@@H](Cc1ccccc1)C(=O)O (stereo partly shown) [Compound 57]
Ki [2]: < 100 nM

CCCC(NC(=O)[C@@H]1[C@@H](CC2CC2)CCN1C(=O)[C@@H](NC(=O)[C@@H](NC(=O)c1cnccn1)C(C)C)C(C)C)C(=O)C(=O)N[C@@H](Cc1ccccc1)C(=O)O (stereo partly shown) [Compound 20]
Ki [2]: 100 to 500 nM

CCCC(NC(=O)[C@@H]1[C@@H](CC)CCN1C(=O)[C@@H](NC(=O)[C@@H](NC(=O)c1cnccn1)C1CCCCC1)C1CCCCC1)C(=O)C(=O)N[C@@H](Cc1ccccc1)C(=O)O (stereo partly drawn) [Compound 42] (Pyrazinecarbonyl-[Chg][Chg][Pro(3S-Et)][X1]F-OH)
Ki [2]: < 100 nM

CCCC(NC(=O)[C@@H]1[C@@H](CC)CCN1C(=O)[C@@H](NC(=O)[C@@H](NC(=O)c1cnccn1)C1CCCCC1)C(C)C)C(=O)C(=O)NC1CC1 (stereo partly shown) [Compound 45]
Ki [2]: > 500 nM

CCCC(NC(=O)[C@@H]1[C@@H](CC)CCN1C(=O)[C@@H](NC(=O)[C@@H](NC(=O)c1cnccn1)C1CCCCC1)C(C)C)C(=O)C(=O)N[C@@H](C)c1ccccc1 (stereo partly shown) [Compound 43]
Ki [2]: 100 to 500 nM

CCCC(NC(=O)[C@@H]1[C@@H](CC)CCN1C(=O)[C@@H](NC(=O)[C@@H](NC(=O)c1cnccn1)C1CCCCC1)C1CCCCC1)C(=O)C(=O)NC1CC1 (stereo partly shown) [Compound 46]
Ki [2]: 100 to 500 nM

CCCC(NC(=O)[C@@H]1[C@@H](CC)CCN1C(=O)[C@@H](NC(=O)[C@@H](NC(=O)c1cnccn1)C1CCCCC1)C(C)CC)C(=O)C(=O)NC1CC1 (stereo partly shown) [Compound 25]
Ki [2]: 100 to 500 nM

CCCC(NC(=O)[C@@H]1[C@@H](C)CCN1C(=O)[C@@H](NC(=O)[C@@H](NC(=O)c1cnccn1)C(C)C)C(C)C)C(=O)C(=O)N[C@@H](Cc1ccccc1)C(=O)O (stereo partly shown) [Compound 22]
Ki [2]: 100 to 500 nM

CCCC(NC(=O)[C@@H]1[C@@H](CC)CCN1C(=O)[C@@H](NC(=O)[C@@H](NC(=O)c1ncc[nH]1)C1CCCCC1)C(C)C)C(=O)C(=O)NC1CC1 (stereo partly shown) [Compound 53]
Ki [2]: 100 to 500 nM

CCCC(NC(=O)[C@@H]1[C@@H](CC)CCN1C(=O)[C@@H](NC(=O)[C@@H](NC(=O)c1cnccn1)C(C)C)C1CCCCC1)C(=O)C(=O)N[C@@H](Cc1ccccc1)C(=O)O (stereo partly drawn) [Compound 32] (Pyrazinecarbonyl-V[Chg][Pro(3S-Et)][X1]F-OH)
Ki [2]: 100 to 500 nM

CCCC(NC(=O)[C@@H]1[C@@H](CC)CCN1C(=O)[C@@H](NC(=O)[C@@H](NC(=O)c1cnccn1)C(c1ccccc1)c1ccccc1)C(C)C)C(=O)C(=O)NC1CC1 (stereo partly shown) [Compound 60]
IC50 ([1]; 50% inhibition of HCV RNA level, 48-hour incubation, Taqman real-time RT-PCR, read-out: IC50): > 1000 nM

CCCC(NC(=O)[C@@H]1[C@@H](CC)CCN1C(=O)[C@@H](NC(=O)[C@@H](NC(=O)c1cnccn1)C1CCCCC1)C1CCCCC1)C(=O)C(=O)N[C@@H](C)c1ccccc1 (stereo partly shown) [Compound 50]
Ki [2]: 100 to 500 nM

CCCC(NC(=O)[C@@H]1C(CC)CCN1C(=O)[C@@H](NC(=O)[C@@H](NC(=O)c1cnccn1)C(C)C)C(C)C)C(=O)C(=O)N[C@@H](Cc1ccccc1)C(=O)O (stereo partly shown) [Compound 5]
Ki [2]: < 100 nM

CCCC(NC(=O)[C@@H]1[C@@H](CC)CCN1C(=O)[C@@H](NC(=O)[C@@H](NC(=O)c1cnccn1)C1CCCCC1)C(C)CC)C(=O)C(=O)N[C@@H](Cc1ccccc1)C(=O)O (stereo partly drawn) [Compound 29] (Pyrazinecarbonyl-[Chg][Ile(3ξ)][Pro(3S-Et)][X1]F-OH)
Ki [2]: < 100 nM

CCCC(NC(=O)[C@@H]1[C@@H](C(=O)OC)CCN1C(=O)[C@@H](NC(=O)[C@@H](NC(=O)c1cnccn1)C(C)C)C(C)C)C(=O)C(=O)N[C@@H](Cc1ccccc1)C(=O)O (stereo partly shown) [Compound 15]
Ki [2]: 100 to 500 nM

CCCC(NC(=O)[C@@H]1[C@@H](CC)CCN1C(=O)[C@@H](NC(=O)[C@@H](NC(=O)c1cnccn1)C(C)C)C(C)CC)C(=O)C(=O)N[C@@H](Cc1ccccc1)C(=O)O (stereo partly drawn) [Compound 30] (Pyrazinecarbonyl-V[Ile(3ξ)][Pro(3S-Et)][X1]F-OH)
Ki [2]: 100 to 500 nM
